# Measured values from the C3SDB collision cross section collection.
# Details: [M+H]+; instrument: TW
row,SMILES,collision cross section (N2) [Å²]
1,CON(C)C(=O)Nc1ccc(Cl)c(Cl)c1 [Linuron],149.63
2,O=C(CCCN1CCN(c2ccccn2)CC1)c1ccc(F)cc1 [Azaperone],180.3
3,Nc1c(Cl)cc(C(O)CNC2CCC(O)CC2)cc1Cl (stereo not drawn) [Clencyclohexerol],164.7
4,CC(C)(C)NCC(O)c1cc(Br)c(N)c(Br)c1 (stereo not drawn) [Brombuterol],167
5,COC(=O)NC(=S)Nc1ccccc1NC(=S)NC(=O)OC [Thiophanate-methyl],174.24
6,O=C(O)c1c(Cl)ccc2cc(Cl)cnc12 [Quinclorac],139.54
7,CC#Cc1cc(C)nc(Nc2ccccc2)n1 [Mepanipyrim],152.07
8,COC(=O)C(C)N(C(=O)c1ccco1)c1c(C)cccc1C (stereo not drawn) [Furalaxyl],167.15
9,C[C@H]1C[C@H]2[C@@H]3CCC4=CC(=O)C=C[C@]4(C)[C@@]3(F)[C@@H](O)C[C@]2(C)[C@@]1(O)C(=O)CCl [Clobetasol],201.29
10,CC(Oc1ccc(Oc2ccc(C(F)(F)F)cn2)cc1)C(=O)O (stereo not drawn) [Fluazifop],173.47
11,Nc1ccc(S(=O)(=O)Nc2nccs2)cc1 [Sulfathiazole],148.2
12,CC(Oc1ccc(Oc2ncc(C(F)(F)F)cc2Cl)cc1)C(=O)O (stereo not drawn) [Haloxyfop],179.86
13,CC(Cc1ccc(O)cc1)NCC(O)c1cc(O)cc(O)c1 (stereo not drawn) [Fenoterol],180.4

# Details: [M+2K]2+; instrument: TW; calibrated with phosphatidylcholines (ESI+) and phosphatidylethanolamines (ESI-), doubly charged cardiolipins calibrated with poly-DL-…
row,SMILES,collision cross section (N2) [Å²]
1,CCCCCC/C=C\CCCCCCCC(=O)OC(COC(=O)CCCCCCCCCCCCCCC)COP(=O)(O)OCC(O)COP(=O)(O)OCC(COC(=O)CCCCCCCCCCCCCCC)OC(=O)CCCCCCCC1CC1CCCCCC (stereo not drawn) [CL(65:2)],425.4

# Same assay, conditions: [M+H]+; instrument: TW; calibrated with phosphatidylcholines (ESI+) and phosphatidylethanolamines (ESI-), doubly charged cardiolipins calibrated with poly-DL-…
row,SMILES,collision cross section (N2) [Å²]
1,CCCCCCC1CC1CCCCCCCC(=O)O[C@H](CO)COP(=O)([O-])OCC[NH3+] (stereo partly drawn) [LPE(0:0/17:1)],214.85
2,CCCCCCCCCCCCCCCC(=O)OCC(COP(=O)(O)OCCN)OC(=O)CCCCCCCCCCCCC (stereo not drawn) [PE(30:0)],265.85
3,CCCCCC/C=C/CCCCCCCC(=O)OC[C@@H](O)COP(=O)([O-])OCC[NH3+] [LPE(16:1/0:0)],206.28

# Same assay, conditions: [M+Na]+; instrument: TW; calibrated with phosphatidylcholines (ESI+) and phosphatidylethanolamines (ESI-), doubly charged cardiolipins calibrated with poly-DL-…
row,SMILES,collision cross section (N2) [Å²]
1,CCCCCCC1CC1CCCCCCCC(=O)O[C@H](CO)COP(=O)([O-])OCC[NH3+] (stereo partly drawn) [LPE(0:0/17:1)],219.32
2,CCCCCC/C=C\CCCCCCCC(=O)OCC(COP(=O)(O)OCC(O)CO)OC(=O)CCCCCCCC1CC1CCCCCCCC (stereo not drawn) [PG(35:2)],281.82
3,CCCCCCCCCCCCCCCC(=O)OCC(COP(=O)(O)OCC(O)CO)OC(=O)CCCCCCCCCCCCCCC (stereo not drawn) [PG(32:0)],278.8
4,CCCCCC/C=C/CCCCCCCC(=O)OC[C@@H](O)COP(=O)([O-])OCC[NH3+] [LPE(16:1/0:0)],211.09

# Same assay, conditions: [M-2H]2-; instrument: TW; calibrated with phosphatidylcholines (ESI+) and phosphatidylethanolamines (ESI-), doubly charged cardiolipins calibrated with poly-DL-…
row,SMILES,collision cross section (N2) [Å²]
1,CCCCCC/C=C\CCCCCCCC(=O)OC(COC(=O)CCCCCCCCCCCCCCC)COP(=O)(O)OCC(O)COP(=O)(O)OCC(COC(=O)CCCCCCCCCCCCCCC)OC(=O)CCCCCCCC1CC1CCCCCC (stereo not drawn) [CL(65:2)],399.77

# Same assay, conditions: [M-H]-; instrument: TW; calibrated with phosphatidylcholines (ESI+) and phosphatidylethanolamines (ESI-), doubly charged cardiolipins calibrated with poly-DL-…
row,SMILES,collision cross section (N2) [Å²]
1,CCCCCC/C=C\CCCCCCCC(=O)OC[C@H](COP(=O)(O)OCCNC(=O)CCCCCCCCCCCCCCC)OC(=O)CCCCCCCC1CC1CCCCCCCC (stereo partly drawn) [AcylPE(51:2)],325.65
2,CCCCCC/C=C\CCCCCCCC(=O)OC[C@H](COP(=O)(O)OC[C@@H](O)COC(=O)CCCCCCCCCCCCCCC)OC(=O)CCCCCCCC1CC1CCCCCCCC (stereo partly drawn) [AcylPG(51:2)],326.79
3,CCCCCC/C=C\CCCCCCCC(=O)OC[C@H](COP(=O)(O)OC[C@@H](O)COC(=O)CCCCCCCCCCCCCCC)OC(=O)CCCCCCC/C=C\CCCCCC [AcylPG(48:2)],315.28
4,CCCCCCC1CC1CCCCCCCC(=O)O[C@H](CO)COP(=O)([O-])OCC[NH3+] (stereo partly drawn) [LPE(0:0/17:1)],207.62
5,CCCCCC/C=C\CCCCCCCC(=O)OCC(COP(=O)(O)OCC(O)CO)OC(=O)CCCCCCCC1CC1CCCCCCCC (stereo not drawn) [PG(35:2)],271.85
6,CCCCCCCCCCCCCCCC(=O)OCC(COP(=O)(O)OCCN)OC(=O)CCCCCCCCCCCCC (stereo not drawn) [PE(30:0)],251.05
7,CCCCC1CC1CCCCCCCC(=O)O[C@H](CO)COP(=O)(O)OCC(O)CO (stereo partly drawn) [LPG(15:1)],206.44
8,CCCC/C=C\CCCCCCCC(=O)O[C@H](COC(=O)CCCCCCC/C=C\CCCCCC)COP(=O)(O)OC[C@@H](O)COC(=O)CCCCCCCCCCCCCCC [AcylPG(46:2)],312.53
9,CCCCCCCCCCCCCCCC(=O)OCC(COP(=O)(O)OCC(O)CO)OC(=O)CCCCCCCCCCCCCCC (stereo not drawn) [PG(32:0)],263.91
10,CCCCCC/C=C/CCCCCCCC(=O)OC[C@@H](O)COP(=O)([O-])OCC[NH3+] [LPE(16:1/0:0)],203.75
11,CCCCCCCC/C=C/CCCCCCCC(=O)OC[C@@H](O)COP(=O)(O)OCC(O)CO (stereo partly drawn) [LPG(18:1)],217.72
